This is an account of results in patent US7947690B2, “Pyrimidine derivative condensed with a non-aromatic ring” (Astellas Pharma Inc., priority 2004, dated 2011).

Where a name gives a salt, the structure may show the parent alone.

The first assay deals with MIN6B1 cell. Kind of assay: Assay for promoting activity on insulin secretion. Conditions: 10 μM test compound in KRB-HEPES with 16.8 mM glucose, 37° C., 22 minutes; relative value, insulin concentration for only DMSO = 100%. The class given is cell-based, mouse. On the procedure: (1) Assay for Promoting Activity on Insulin Secretion
In this assay, promoting activities on insulin secretion of the test compounds were studied using MIN6B1 cell, which was a strain of mouse pancreatic β-cells, and glibenclamide, which was a commercially available insulin secretion secretagogue, as a reference compound. The assay procedure is given below.
MIN6B1 cells were seeded on a 48-well plate at a concentration of 1×10^5 cells/well (0.25 ml) (The medium was prepared by adding FCS (fetal calf serum) to DMEM (Dulbecco's Modified Eagle Medium) containing 25 mM glucose such that the FCS concentration became 10%). After two days, the medium was suctioned by an aspirator, each well was Washed four times with 0.2 ml of KRB-HEPES buffer (Krebs-Ringer-bicarbonate-N-2-hydroxylethylpiperazine-N′-2-ethanesulfonic acid; 130 mM NaCl, 4.7 mM KCl, 1.2 mM KH2PO4, 1.2 mM MgCl2.6H2O, 0.25 mM CaCl2.2H2O, 2.5 mM NaHCO3, 0.5% BSA, and 10 mM N-2-hydroxyethylpiperazine-N′-2-ethanesulfonic acid (pH 7.4)) containing 2.8 mM glucose warmed to 37° C., 0.2 ml of said buffer was again added, and the cells were incubated at 37° C. for 30 to 60 minutes. After the buffer was suctioned by an aspirator, 0.25 ml of a solution containing 10 μM of each test compound in KRB-HEPES containing 16.8 mM glucose was added to each well, and the cells were incubated at 37° C. for 22 minutes. The samples were pipetted and diluted by 25 to 51 times, and the insulin concentrations were analyzed using an insulin assay kit (Rat Insulin [^125I] Biotrak Assay System with Magnetic Separation; Amersham Bioscience K.K.). The test compounds were dissolved in 100% DMSO, and were added at the final concentration of 0.1%. The activity was expressed as a relative value, provided that insulin concentration for only DMSO was 100%.
`O=C(CO)NCC1CCN(c2nc(-c3cc(F)c(Cl)cc3F)nc3c2CS(=O)(=O)C3)CC1` [Example 331]: the “Promotion activity on insulin secretion, %” value came to 308%.

On to `O=S1(=O)Cc2nc(-c3cc(F)c(Cl)cc3F)nc(N3CCC(O)(CCCO)CC3)c2C1` [Example 272, 1-[2-(4-chloro-2,5-difluorophenyl)-6,6-dioidxo-5,7-dihydrothieno[3,4-d]pyrimidin-4-yl]-4-(3-hydroxypropyl)piperidin-4-ol], for which the “Promotion activity on insulin secretion, %” value was 322%.

Staying with this assay, now noted: Mus musculus, 22 min, 10 μM test compound in KRB-HEPES with 16.8 mM glucose, 37° C., relative value, insulin concentration for only DMSO = 100%, read-out: Promotion activity on insulin secretion, %.
As to `C[C@@H]1CCCN(c2nc(-c3cc(F)c(Cl)cc3F)nc3c2CS(=O)(=O)C3)C1` [Example 1, (R)-2-(4-chloro-2,5-difluorophenyl)-4-(3-methylpiperidin-1-yl)-5,7-dihydrothieno[3,4-d]pyrimidine 6,6-dioxide hydrochloride], the activity at 10 µM was 355%.

Regarding `COc1ccc(Cl)cc1C(=O)NCCc1ccc(S(=O)(=O)NC(=O)NC2CCCCC2)cc1` [Glibenclamide, glibenclamide, reference compound], the activity at 10 µM came out at 122%.

Turning to `NC(=O)CCC1CCN(c2nc(-c3cc(F)c(Cl)cc3F)nc3c2CS(=O)(=O)C3)CC1` [Example 283, 3-{1-[2-(4-chloro-2,5-difluorophenyl)-6,6-dioxido-5,7-dihydrothieno[3,4-d]pyrimidin-4-yl]piperidin-4-yl}propanamide], the activity at 10 µM came to 375%.

On to `O=S1(=O)Cc2nc(-c3cc(F)c(Cl)cc3F)nc(N3CCC(NCCCO)CC3)c2C1` [Example 287, 3-({1-[2-(4-chloro-2,5-difluorophenyl)-6,6-dioxido-5,7-dihydrothieno[3,4-d]pyrimidin-4-yl]piperidin-4-yl}amino)propan-1-ol], for which the activity at 10 µM was determined as 208%.

With `O=C(O)CCCC1CCN(c2nc(C3CCCC3)nc3c2CS(=O)(=O)C3)CC1` [Example 407, 4-[1-(2-cyclopentyl-6,6-dioxido-5,7-dihydrothieno[3,4-d]pyrimidin-4-yl)piperidin-4-yl]butyric acid], the activity at 10 µM was 325%.

Regarding `O=C(O)CCNC1CCN(c2nc(-c3cc(F)c(Cl)cc3F)nc3c2CS(=O)(=O)C3)CC1` [Example 288, 3-({1-[2-(4-chloro-2,5-difluorophenyl)-6,6-dioxido-5,7-dihydrothieno[3,4-d]pyrimidin-4-yl]piperidin-4-yl}amino)propionic acid], the activity at 10 µM came to 253%.

Turning to `O=C(O)CCCC1CCN(c2nc(-c3cc(F)c(Cl)cc3F)nc3c2CS(=O)(=O)C3)CC1` [Example 291, 4-{1-[2-(4-chloro-2,5-difluorophenyl)-6,6-dioxido-5,7-dihydrothieno[3,4-d]pyrimidin-4-yl]piperidin-4-yl}butyric acid], the activity at 10 µM was found to be 269%.

For the molecule `NC(=O)CCN1CCN(c2nc(-c3cc(F)c(Cl)cc3F)nc3c2CS(=O)(=O)C3)CC1` [Example 269, 3-{4-[2-(4-chloro-2,5-difluorophenyl)-6,6-dioxido-5,7-dihydrothieno[3,4-d]pyrimidin-4-yl]piperazin-1-yl}propanamide], the activity at 10 µM came to 212%.

For a further assay, the system named is normal mice. The assay can be described thus: Oral glucose tolerance test on normal mouse. The class given is in vivo. Conditions: ICR mice, nateglinide 10 mg/kg orally 30 minutes before glucose loading; at 30 minutes after glucose loading, relative to control group. The protocol:
(2) Oral Glucose Tolerance Test on Normal Mouse
In this assay, preventive activities of test compounds against hyperglycemia following glucose loading were examined using normal mice and nateglinide, a commercially available oral anti-hyperglycemic agent, as a reference compound. The assay procedure is given below.
ICR mice (male, six weeks old) that had been preliminary bred for one week were fasted for 18 to 20 hours to use as test animals. Each test compound was dissolved in 0.5% methylcellulose solution and orally administered at 3 mg/kg (10 mg/kg for nateglinide) before glucose loading. Timing to administer the test compound was selected to be optimal for each test compound, which was 10 minutes before glucose loading for the compounds of the present invention or 30 minutes before glucose loading for nateglinide, which was a reference compound. The hypoglycemic rate (%) at 30 minutes after glucose loading was measured relative to the control group.
For the molecule `CC(C)[C@H]1CC[C@H](C(=O)N[C@H](Cc2ccccc2)C(=O)O)CC1` [Nateglinide, nateglinide], the “Hypoglycemic rate, %” value came out at 26%.
